Assay results taken from patent US12083109B2, “Neurokinin antagonists and uses thereof” (California Institute of Technology, priority 2017, dated 2024).
“Also recorded” adds a separate entry of the source.

What was measured:
[1] = molecular target: T1, hM4DREADD in Tac2+ neurons (Homo sapiens, UniProt P08173, A203G/Y113C); experiment: Resident intruder assay, CNO silencing of Tac2+ neurons (hM4DREADD); assay type: in vivo, mouse; conditions: SIS Tac2-Cre mice, hM4DREADD in DMH; CNO 5 mg/kg i.p.
T1 construct: host or cells: Tac2+ neurons of Tac2-Cre mice (dBNSTa, DMH or CeA), transduced in vivo with AAV2-EF1a-DIO-hM4D-mCherry
T1 sequence (P08173 1-479 Y113C/A203G): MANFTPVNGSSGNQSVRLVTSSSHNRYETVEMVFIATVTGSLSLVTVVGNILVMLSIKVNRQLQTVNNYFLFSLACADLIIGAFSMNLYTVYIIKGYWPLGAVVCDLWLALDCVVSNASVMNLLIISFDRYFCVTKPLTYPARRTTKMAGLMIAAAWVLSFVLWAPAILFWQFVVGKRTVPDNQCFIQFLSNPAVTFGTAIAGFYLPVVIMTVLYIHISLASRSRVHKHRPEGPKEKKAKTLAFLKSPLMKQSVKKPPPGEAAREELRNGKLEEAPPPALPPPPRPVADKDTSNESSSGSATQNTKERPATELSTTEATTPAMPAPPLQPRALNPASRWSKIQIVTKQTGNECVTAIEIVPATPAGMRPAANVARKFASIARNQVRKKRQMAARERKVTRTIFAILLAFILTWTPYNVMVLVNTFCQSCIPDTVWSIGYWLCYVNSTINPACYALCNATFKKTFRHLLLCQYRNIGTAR
Method: Testing for aggression using the resident intruder assay (Blanchard et al., 2003; incorporated by reference in its entirety) was performed as previously described (Hong et al., 2015; Hong et al., 2014; Lee et al., 2014; incorporated by reference in their entirety). Briefly, experimental mice (“residents”) were transported in their homecage to a novel behavior testing room (cagemates in group housed mice were removed from the homecage prior to transport for this and all other behavioral tests), where they acclimated for 5-15 minutes. Homecages were then slotted into a customized behavioral chamber lit with a surround panel of infrared lights and equipped with two synchronized infrared video cameras (Pointgrey) placed at 90-degree angles from each other to allow for simultaneous behavior recording with a front and top view. Synchronized video was acquired using Hunter 4.0 software (custom, Pietro Perona lab, Caltech). […] Fighting bouts were scored on a frame-by-frame basis and were defined as a frame during which the resident male was engaged in an episode of biting or intense aggressive behavior immediately surrounding a biting episode. Annotation files were then batch analyzed for behavior, including number of fighting bouts, using in-house customized programs in MATLAB (A. Kennedy, Caltech). […]

[2] = molecular target: T2, Nk3R (Mus musculus, UniProt P47937); experiment: Social interaction assay, osanetant; assay type: in vivo; design: from tissue; host or cells: Living mice (wild-type C57Bl6/N males, Charles River); conditions: SIS mice; acute systemic osanetant; listed as Osanetant
T2 sequence (P47937 1-452): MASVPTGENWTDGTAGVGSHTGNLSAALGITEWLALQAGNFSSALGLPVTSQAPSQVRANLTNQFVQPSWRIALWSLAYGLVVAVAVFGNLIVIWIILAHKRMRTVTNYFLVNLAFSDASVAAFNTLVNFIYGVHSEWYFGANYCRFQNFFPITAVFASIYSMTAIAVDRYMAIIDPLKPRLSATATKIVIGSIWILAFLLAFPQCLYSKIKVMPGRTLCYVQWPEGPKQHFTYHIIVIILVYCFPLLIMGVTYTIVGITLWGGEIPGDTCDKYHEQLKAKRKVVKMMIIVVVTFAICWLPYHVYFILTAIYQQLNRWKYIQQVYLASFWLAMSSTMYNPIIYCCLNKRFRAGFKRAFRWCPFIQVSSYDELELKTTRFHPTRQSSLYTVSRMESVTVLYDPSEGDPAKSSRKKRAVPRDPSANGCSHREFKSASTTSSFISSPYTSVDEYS
Method: (§1) Mice were administered the Nk3R antagonist osanetant (Axon Medchem, Axon 1533) either systemically or intra-brain region. Osanctant was dissolved in saline with 0.1% Tween 20 (vehicle). For systemic administration mice received an intraperitoneal (i.p.) injection (5 mg/kg) 20 minutes prior to behavioral testing. For microinfusions, guide cannulas were removed from mice and replaced with injector cannulas (Plastics One), which protruded 0.5 mm from the tip of the guide cannula. Injectors were attached to 5 μl Hamilton syringes with PE tubing (Plastics One) and mounted on a microinfusion pump (Harvard Apparatus) for controlled infusion of osanetant (0.3 μl vehicle with 375 ng dose per site injected over 6 minutes). For experiments using systemic administration of clozapine-N-oxide (CNO), CNO (Enzo Life Sciences-Biomol, BML-NS105-0005) was dissolved in saline (9 g/L NaCl) and injected (i.p.) at 5 mg/kg for hM4DREADD silencing or 2 mg/kg for hM3DREADD activation 20 minutes prior to behavioral testing. CNO was also administered chronically in drinking water (0.5 mg CNO/100 ml water).

[3] = molecular target: T2, Nk3R; experiment: Resident intruder assay (aggression), osanetant; assay type: in vivo; design: from tissue; host or cells: Living mice (wild-type C57Bl6/N males, Charles River)
Method: Testing for aggression using the resident intruder assay (Blanchard et al., 2003; incorporated by reference in its entirety) was performed as previously described (Hong et al., 2015; Hong et al., 2014; Lee et al., 2014; incorporated by reference in their entirety). Briefly, experimental mice (“residents”) were transported in their homecage to a novel behavior testing room (cagemates in group housed mice were removed from the homecage prior to transport for this and all other behavioral tests), where they acclimated for 5-15 minutes. Homecages were then slotted into a customized behavioral chamber lit with a surround panel of infrared lights and equipped with two synchronized infrared video cameras (Pointgrey) placed at 90-degree angles from each other to allow for simultaneous behavior recording with a front and top view. Synchronized video was acquired using Hunter 4.0 software (custom, Pietro Perona lab, Caltech). Following a two-minute baseline period, an unfamiliar male BALB/c mouse (“intruder”) was placed in the homecage of the resident for 10 minutes and mice were allowed to freely interact. Group housed BALB/c males were used as intruders because they are a relatively submissive strain, thereby reducing any intruder-initiated fighting. Behavior videos were hand-annotated by an observer blind to experimental conditions (Behavior Annotator, Piotr's MATLAB toolbox; http://vision.ucsd.edu/˜pdollar/toolbox/doc/). Fighting bouts were scored on a frame-by-frame basis and were defined as a frame during which the resident male was engaged in an episode of biting or intense aggressive behavior immediately surrounding a biting episode. Annotation files were then batch analyzed for behavior, including number of fighting bouts, using in-house customized programs in MATLAB (A. Kennedy, Caltech).
as §1

| SIS-induced decreased social interaction (time in social zone) [2] | aggression promoted by sexual experience ([3]; 2 weeks co-habitation with a female, no isolation, systemic osanetant) | SIS-enhanced aggression ([3]; SIS mice (2 weeks isolation), osanetant 5 mg/kg i.p. 20 min before test) | SIS-enhanced aggression ([3]; SIS mice (2 weeks isolation), osanetant 5 mg/kg i.p. 20 min before test, listed as Osanetant) | SIS-enhanced aggression ([3]; osanetant daily during two-week isolation, tested off-drug) | aggression ([3]; osanetant injection into CeA) | SIS-induced aggression ([3]; osanetant microinfusion into DMH) | SIS-induced aggression ([3]; osanetant microinfusion into DMH, listed as Osanetant) | SIS-induced aggression ([3]; osanetant microinfusion into dBNSTa) | Structure (SMILES) | aggression [1] |
| --- | --- | --- | --- | --- | --- | --- | --- | --- | --- | --- |
| – | – | – | – | – | – | – | – | – | C[N+]1([O-])CCN(C2=Nc3cc(Cl)ccc3Nc3ccccc32)CC1 [CNO, clozapine-N-oxide] | blocked; also recorded: inhibited |
| blocked; also recorded: attenuated | had no effect | blocked | strongly reduced | prevented | unaffected | abolished | selectively blocked | no effect | CC(=O)N(C)C1(c2ccccc2)CCN(CCC[C@]2(c3ccc(Cl)c(Cl)c3)CCCN(C(=O)c3ccccc3)C2)CC1 [osanetant, N-(1-{3-[(3R)-1-benzoyl-3-(3,4-dichlorophenyl)piperidin-3-yl]propyl}-4-phenylpiperidin-4-yl)-N-methylacetamide] | – |
